Test results reported in PubChem BioAssay AID248 (DTP/NCI, 2004).
Inconclusive results and toxic doses are left out. No stated cut-off is given here; in the data, active means T/C of 150% or more; inactive means T/C below 125%.

System: L1210 leukemia ip in BDF1 mice, survival T/C
Assay: NCI In Vivo Anticancer Drug Screen. Data for tumor model L1210 Leukemia (intraperitoneal) in B6D2F1 (BDF1) mice
Conditions: endpoint: mean survival time, higher = longer survival
Summary of the method: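 Transplanted-tumor mice were given test agent; controls received vehicle only. Survival readings from the two groups were divided (treated over control).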

[1] = dose: 100.0 mg/kg/injection, schedule: Q04DX003 (ip), vehicle: saline with Tween-80
[2] = dose: 200.0 mg/kg/injection, schedule: Q04DX003 (ip), vehicle: saline with Tween-80
[3] = dose: 400.0 mg/kg/injection, schedule: Q04DX003 (ip), vehicle: saline with Tween-80
[4] = dose: 100.0 mg/kg/injection, schedule: Q04DX003 (ip), vehicle: Klucel (hydroxypropylcellulose) (HPC)
[5] = dose: 200.0 mg/kg/injection, schedule: Q04DX003 (ip), vehicle: Klucel (hydroxypropylcellulose) (HPC)
[6] = dose: 400.0 mg/kg/injection, schedule: Q04DX003 (ip), vehicle: Klucel (hydroxypropylcellulose) (HPC)
[7] = dose: 75.0 mg/kg/injection, schedule: Q01DX001 (ip), vehicle: saline
[8] = dose: 25.0 mg/kg/injection, schedule: Q04DX002 (ip), vehicle: Klucel (hydroxypropylcellulose) (HPC)
[9] = dose: 50.0 mg/kg/injection, schedule: Q04DX002 (ip), vehicle: Klucel (hydroxypropylcellulose) (HPC)
[10] = dose: 100.0 mg/kg/injection, schedule: Q01DX001 (ip), vehicle: carboxymethylcellulose (CMC)
[11] = dose: 200.0 mg/kg/injection, schedule: Q01DX001 (ip), vehicle: carboxymethylcellulose (CMC)
[12] = dose: 400.0 mg/kg/injection, schedule: Q01DX001 (ip), vehicle: carboxymethylcellulose (CMC)
[13] = dose: 150.0 mg/kg/injection, schedule: Q01DX001 (ip), vehicle: saline

Measured: T/C

CCC(C1=CCCCC1)c1nc2c([nH]1)c(=O)n(C)c(=O)n2C (centres undefined)
inactive: dose: 50.0 mg/kg/injection, schedule: Q01DX001 (ip), vehicle: other 101 % of control | dose: 100.0 mg/kg/injection, schedule: Q01DX001 (ip), vehicle: other 90 % of control | dose: 200.0 mg/kg/injection, schedule: Q01DX001 (ip), vehicle: other 90 % of control | dose: 400.0 mg/kg/injection, schedule: Q01DX001 (ip), vehicle: other 97 % of control

NC(=O)c1[nH]cnc1/N=N/N(CCO)CCO
inactive: dose: 50.0 mg/kg/injection, schedule: Q01DX001 (ip), vehicle: water 102 % of control | dose: 50.0 mg/kg/injection, schedule: Q04DX003 (ip), vehicle: water 100 % of control | dose: 100.0 mg/kg/injection, schedule: Q01DX001 (ip), vehicle: water 97 % of control | dose: 100.0 mg/kg/injection, schedule: Q01DX009 (ip), vehicle: saline with Tween-80 105 % of control | [1] 101 % of control | dose: 100.0 mg/kg/injection, schedule: Q04DX003 (ip), vehicle: water 101 % of control | dose: 200.0 mg/kg/injection, schedule: Q01DX001 (ip), vehicle: water 103 % of control | dose: 200.0 mg/kg/injection, schedule: Q01DX009 (ip), vehicle: saline with Tween-80 105 % of control | [2] 101 % of control | dose: 200.0 mg/kg/injection, schedule: Q04DX003 (ip), vehicle: water 100 % of control | dose: 400.0 mg/kg/injection, schedule: Q01DX001 (ip), vehicle: water 101 % of control | dose: 400.0 mg/kg/injection, schedule: Q01DX009 (ip), vehicle: saline with Tween-80 100 % of control | [3] 98 % of control | dose: 400.0 mg/kg/injection, schedule: Q04DX003 (ip), vehicle: water 101 % of control

CC1(C)CC(C(N)=O)C(=O)O1 (centres undefined)
inactive: [1] 101 % of control | [2] 103 % of control | [3] 101 % of control

COc1ccc(OC(=O)Nc2ccccc2Cl)cc1
inactive: dose: 100.0 mg/kg/injection, schedule: Q01DX009 (ip), vehicle: Klucel (hydroxypropylcellulose) (HPC) 94 % of control | [4] 95 % of control | dose: 200.0 mg/kg/injection, schedule: Q01DX009 (ip), vehicle: Klucel (hydroxypropylcellulose) (HPC) 103 % of control | [5] 104 % of control | dose: 400.0 mg/kg/injection, schedule: Q01DX009 (ip), vehicle: Klucel (hydroxypropylcellulose) (HPC) 103 % of control | [6] 101 % of control

CCCCC#CC(=O)OCCC(C)C
inactive: [1] 94 % of control | [2] 90 % of control | [3] 94 % of control

CCN(CC)CCCNC(c1ccc(Cl)cc1)C(Cl)(Cl)Cl (centres undefined)
inactive: [7] 88 % of control

N=C(N)SCc1ccc(Cl)cc1N
inactive: [8] 97 % of control | [9] 102 % of control | dose: 100.0 mg/kg/injection, schedule: Q04DX002 (ip), vehicle: Klucel (hydroxypropylcellulose) (HPC) 103 % of control

O=NN(CCCl)C(=O)Nc1cc(Cl)ccc1O
inactive: dose: 1.0 mg/kg/injection, schedule: Q01DX001 (ip), vehicle: carboxymethylcellulose (CMC) 116 % of control | dose: 2.0 mg/kg/injection, schedule: Q01DX001 (ip), vehicle: carboxymethylcellulose (CMC) 110 % of control | dose: 4.0 mg/kg/injection, schedule: Q01DX001 (ip), vehicle: carboxymethylcellulose (CMC) 116 % of control | dose: 44.0 mg/kg/injection, schedule: Q01DX009 (ip), vehicle: carboxymethylcellulose (CMC) 100 % of control | dose: 66.0 mg/kg/injection, schedule: Q01DX001 (ip), vehicle: carboxymethylcellulose (CMC) 111 % of control | dose: 66.0 mg/kg/injection, schedule: Q01DX009 (ip), vehicle: carboxymethylcellulose (CMC) 90 % of control | [10] 114 % of control | dose: 100.0 mg/kg/injection, schedule: Q01DX009 (ip), vehicle: carboxymethylcellulose (CMC) 95 % of control | dose: 150.0 mg/kg/injection, schedule: Q01DX001 (ip), vehicle: carboxymethylcellulose (CMC) 111 % of control | [11] 115 % of control | dose: 225.0 mg/kg/injection, schedule: Q01DX001 (ip), vehicle: carboxymethylcellulose (CMC) 123 % of control | [12] 116 % of control | dose: 800.0 mg/kg/injection, schedule: Q01DX001 (ip), vehicle: carboxymethylcellulose (CMC) 118 % of control

CCC1CN2CCc3cc(OC)c(OC)cc3C2CC1CC1c2cc(OC)c(OC)cc2CCN1C(=O)C1CCCN1C(=O)OCc1ccccc1 (centres undefined)
inactive: dose: 50.0 mg/kg/injection, schedule: Q01DX001 (ip), vehicle: carboxymethylcellulose (CMC) 97 % of control | [10] 101 % of control | [11] 106 % of control | [12] 97 % of control

CSC(=Nc1ccccc1)N(C)c1ccccc1
inactive: [4] 90 % of control | [5] 86 % of control | [6] 88 % of control

COc1cc(N)c2ncccc2c1[N+](=O)[O-]
inactive: dose: 50.0 mg/kg/injection, schedule: Q01DX001 (ip), vehicle: saline 112 % of control | dose: 100.0 mg/kg/injection, schedule: Q01DX001 (ip), vehicle: saline 106 % of control | dose: 200.0 mg/kg/injection, schedule: Q01DX001 (ip), vehicle: saline 106 % of control | dose: 400.0 mg/kg/injection, schedule: Q01DX001 (ip), vehicle: saline 104 % of control

CCOC(=O)C1c2cccc(O)c2C=CN1C(C)=O (centres undefined)
inactive: dose: 100.0 mg/kg/injection, schedule: Q04DX003 (ip), vehicle: saline 101 % of control | dose: 200.0 mg/kg/injection, schedule: Q04DX003 (ip), vehicle: saline 97 % of control | dose: 400.0 mg/kg/injection, schedule: Q04DX003 (ip), vehicle: saline 104 % of control

CCC(C)(CC)c1ccc(O)c(C)c1
inactive: dose: 100.0 mg/kg/injection, schedule: Q01DX009 (sc), vehicle: olive oil, sesame oil, peanut oil 104 % of control | dose: 100.0 mg/kg/injection, schedule: Q04DX003 (sc), vehicle: olive oil, sesame oil, peanut oil 104 % of control | dose: 200.0 mg/kg/injection, schedule: Q01DX009 (sc), vehicle: olive oil, sesame oil, peanut oil 112 % of control | dose: 200.0 mg/kg/injection, schedule: Q04DX003 (sc), vehicle: olive oil, sesame oil, peanut oil 106 % of control | dose: 400.0 mg/kg/injection, schedule: Q01DX009 (sc), vehicle: olive oil, sesame oil, peanut oil 101 % of control | dose: 400.0 mg/kg/injection, schedule: Q04DX003 (sc), vehicle: olive oil, sesame oil, peanut oil 108 % of control

N/N=C(\N)c1ccc(NC(=O)c2ccc(C(=O)Nc3ccc(/C(N)=N/N)cc3)cc2)cc1
inactive: dose: 15.0 mg/kg/injection, schedule: Q01DX Z (ip), vehicle: saline 104 % of control | dose: 30.0 mg/kg/injection, schedule: Q01DX Z (ip), vehicle: saline 100 % of control | dose: 60.0 mg/kg/injection, schedule: Q01DX Z (ip), vehicle: saline 103 % of control | dose: 120.0 mg/kg/injection, schedule: Q01DX Z (ip), vehicle: saline 97 % of control

O=c1[nH]c(Cl)ncc1F
inactive: [7] 95 % of control | [13] 96 % of control | dose: 300.0 mg/kg/injection, schedule: Q01DX001 (ip), vehicle: saline 102 % of control

CCN(C(C)=O)c1ccccc1C#N
inactive: [7] 107 % of control | [13] 107 % of control

NC(=O)c1cccc(Cl)n1
inactive: dose: 12.5 mg/kg/injection, schedule: Q04DX002 (ip), vehicle: Klucel (hydroxypropylcellulose) (HPC) 92 % of control | [8] 87 % of control | [9] 90 % of control
